Measurements reported in patent publication US20140121233A1, “Synthesis and Characterization of Second Generation Benzofuranone Ring Substituted Noscapine Analogs” (GEORGIA STATE UNIVERSITY RESEARCH FOUNDATION, INC., priority 2011, published 2014).
pIC50: −log10 of the molar value. Where two headings read alike, the source gives them in different places.

Key:
[1] = tested on: CEM (lymphoma) cancer cells; assay: MTT cytotoxicity assay, CEM; assay type: cell-based; conditions: 48 h drug incubation
Method: (§1) CEM (lymphoma), A549 (lung), PC-3 (prostate), MIA PaCa-2 (pancreatic), MCF-7 and MDA-MB-231 (breast) cancer cells were purchased from ATCC. PC3, A549, MDA-MB-231 and CEM were cultured in RPMI-1640 medium supplemented with 10% Fetal Bovine Serum (FBS) and 1% penicillin/streptomycin. MIA PaCa-2 and MCF-7 cells were cultured in DMEM supplemented with 10% FBS and 1% penicillin/streptomycin. Primary human dermal fibroblasts (HDF) from the dermis of normal human neonatal foreskin were obtained from the Dermatology Department, Emory University. MTT dye (Thiazolyl Blue Tetrazolium Bromide) dimethyl sulfoxide (DMSO), propidium iodide and RNase were purchased from Sigma (St. Louis, Mo.). Cells were cultured at 37° C. with 5% CO2.
(§2) MTT (3-(4,5-dimethylthiazol-2-yl)-2,5-diphenyltetrazolium bromide) assay was employed to evaluate the proliferative capacity of cells. Essentially, MTT is a colorimetric assay, which utilizes the […] tetrazolium dye and converts it into a colored formazan salt, which can be quantified by measuring absorbance at 570 nm. Briefly, a 96-well format was used to seed […] medium containing cells at a density of 5×10^3 cellsper well. After 24 h of incubation, cells were treated with gradient concentration of the test compounds, which were dissolved in DMSO. The final concentration of DMSO in the culture medium was maintained at 0.1%. After 48 h of drug incubation, the spent medium was removed and the wells were washed twice with PBS. 100 μl of fresh medium and 10 μl of MTT (5 mg/ml in PBS) was added to the wells and cells were incubated at 37° C. in dark for 4 h. The formazan product was dissolved by adding 100 μl of 100% DMSO after removing the medium from each well. The absorbance was measured at 570 nm using a Spectra Max Plus multi-well plate reader (Molecular Devices, USA).

[2] = tested on: PC-3 (prostate) cancer cells; assay: MTT cytotoxicity assay, PC-3; assay type: cell-based; conditions: 48 h drug incubation
Method: as §1, §2

[3] = tested on: MIA PaCa-2 (pancreatic) cancer cells; assay: MTT cytotoxicity assay, MIA PaCa-2; assay type: cell-based
Method: as §1, §2

[4] = tested on: cancer cell lines (A549, CEM, MCF-7, MIA PaCa-2, PC-3); assay: MTT cytotoxicity assay, several cancer cell lines together; assay type: cell-based; conditions: for antiproliferative activity, comparison in words: across cell lines of Table 3
Method: as §1, §2

A549 (lung) cancer cells = assay: MTT cytotoxicity assay, A549; assay type: cell-based
Method: as §1, §2

MDA-MB-231 cells = assay: Cell-cycle analysis by flow cytometry; assay type: cell-based; conditions: 25 μM; for G2/M population up to 24 h: 12 and 24 h
Method: Flow-cytometric evaluation of the cell-cycle status was performed as described previously. Control and drug treated cells were centrifuged, washed with ice-cold PBS, and fixed in 70% ethanol. Tubes containing the cell pellets were stored at 4° C. for at least 24 h. Cells were then centrifuged at 1000 g for 10 min and the supernatant was discarded. The pellets were washed twice with 5 ml of PBS and then stained with 0.5 ml of propidium iodide (0.1% in 0.6% Triton-X in PBS) and 0.5 ml of RNase A (2 mg/ml) for 45 min in dark. Samples were then analyzed on a BD FACSCanto II flow-cytometer (BD Biosciences, Sparks, Md.).
To gain further insights into the precise mechanisms responsible for inhibition of cellular proliferation, we next examined the effect of benzofuranone ring substituted analogs on cell cycle distribution profiles of breast cancer MDA-MB-231 cells. The effect of compounds 3-7 on mitotic index (percent G2/M cells) and apoptotic index (percent sub-G1 cells) as a function of time in MDA-MB-231 cells was studied using fluorescence activated cell sorting (FACS) analysis. All 5 compounds were used at 25 μM concentration over 48 h of treatment.
Although staining of DNA with propidium iodide is extremely useful to determine the percent cell population in various cell-cycle phases, it has its limitations. For example, it cannot dissect out the differences between G2 and M phases as both have 4N DNA amounts. Thus, to explore further, a mitosis specific marker, MPM-2, was used to distinctly identify which phase the cells were in.

[5] = tested on: MCF-7 (breast) cancer cells; assay: MTT cytotoxicity assay, MCF-7; assay type: cell-based
Method: as §1, §2

[6] = Homo sapiens, MIA PaCa-2, 48 h drug incubation
[7] = Homo sapiens, A549, 48 h drug incubation
[8] = Homo sapiens, MCF7, 48 h drug incubation

COc1ccc2c(c1OC(C)=O)C(=O)O[C@@H]2[C@H]1c2c(cc3c(c2OC)OCO3)CCN1C [Compound 3, (S)-5-methoxy-1-(R)-4-methoxy-6-methyl-5,6,7,8-tetrahydro-[1,3]dioxolo[4,5-g]isoquinolin-5-yl)-3-oxo-1,3-dihydroisobenzofuran-4-yl acetate]
pIC50 [1]: 4.81 | pIC50 [2]: 5.03 | pIC50 ([3]; 48 h drug incubation): 6.00 | antiproliferative activity, comparison in words [4]: generally most-effective against most cell lines | pIC50 ([4]; lung, lymphoma, pancreatic and prostate, read-out: IC50 values, lung, lymphoma, pancreatic and prostate cancer cells): 4.82 to 6.00 | pIC50 (A549 (lung) cancer cells; 48 h drug incubation): 5.49 | G2/M population up to 24 h (MDA-MB-231 cells): G2/M population increased considerably | G2/M population at 48 h (MDA-MB-231 cells; 48 h): G2/M population decreased significantly | pIC50 ([5]; 48 h drug incubation): 3.78

COc1ccc2c(c1OC)C(=O)O[C@@H]2[C@H]1c2c(cc3c(c2OC)OCO3)CCN1C [Noscapine]
pIC50 [1]: 4.70 | pIC50 [2]: 4.29 | pIC50 [3, 6]: 4.15 | pIC50 (A549 (lung) cancer cells; [7]): 4.14 | pIC50 [5, 8]: 4.35

COc1ccc2c(c1OC(=O)Nc1ccccc1)C(=O)O[C@@H]2[C@H]1c2c(cc3c(c2OC)OCO3)CCN1C [Compound 6, (S)-5-methoxy-1-0)-4-methoxy-6-methyl-5,6,7,8-tetrahydro-[1,3]dioxolo[4,5-g]isoquinolin-5-yl)-3-oxo-1,3-dihydroisobenzofuran-4-yl phenylcarbamate]
pIC50 [1]: 3.60 | pIC50 [2]: 4.08 | pIC50 ([3]; 48 h drug incubation): 6.00 | pIC50 ([4]; majority of the cell lines, read-out: IC50 values, majority of the cell lines): 3.60 to 4.30 | pIC50 (A549 (lung) cancer cells; 48 h drug incubation): 4.30 | pIC50 ([5]; 48 h drug incubation): 3.74

COc1ccc2c(c1OC(=O)NCc1ccccc1)C(=O)O[C@@H]2[C@H]1c2c(cc3c(c2OC)OCO3)CCN1C [Compound 7, (S)-5-methoxy-1-((R)-4-methoxy-6-methyl-5,6,7,8-tetrahydro-[1,3]dioxolo[4,5-g]isoquinolin-5-yl)-3-oxo-1,3-dihydroisobenzofuran-4-yl benzylcarbamate]
pIC50 [1]: 5.15 | pIC50 [2]: 4.31 | pIC50 [3, 6]: 4.61 | antiproliferative activity, comparison in words [4]: relatively lower IC50 values when compared to compound 6 | pIC50 (A549 (lung) cancer cells; [7]): 4.60 | pIC50 [5, 8]: 4.13

COc1ccc2c(c1O)C(=O)O[C@@H]2[C@H]1c2c(cc3c(c2OC)OCO3)CCN1C [Compound 2, (S)-7-hydroxy-6-methoxy-3-((R)-4-methoxy-6-methyl-5,6,7,8-tetrahydro[1,3]dioxolo-[4,5-g]isoquinolin-5-yl)isobenzofuran-1(3H)-one]
melting point: 142 to 143 °C

CCNC(=O)Oc1c(OC)ccc2c1C(=O)O[C@@H]2[C@H]1c2c(cc3c(c2OC)OCO3)CCN1C [Compound 5]
pIC50 [1]: 5.77 | pIC50 [2]: 5.18 | pIC50 ([3]; 48 h drug incubation): 4.31 | pIC50 (A549 (lung) cancer cells; 48 h drug incubation): 5.25 | G2/M population up to 24 h (MDA-MB-231 cells): G2/M population increased considerably | G2/M population at 48 h (MDA-MB-231 cells; 48 h): mostly remained arrested in G2/M phase | apoptotic index (sub-G1) (MDA-MB-231 cells; 48 h): lower compared to compound 3 | duration of G2 arrest (MDA-MB-231 cells; MPM-2 marker): the arrest was maintained until 48 h | pIC50 ([5]; 48 h drug incubation): 4.31

COc1ccc2c(c1OC(=O)c1ccccc1)C(=O)O[C@@H]2[C@H]1c2c(cc3c(c2OC)OCO3)CCN1C [Compound 4, (S)-5-methoxy-1-(R)-4-methoxy-6-methyl-5,6,7,8-tetrahydro-[1,3]dioxolo[4,5-g]isoquinolin-5-yl)-3-oxo-1,3-dihydroisobenzofuran-4-yl benzoate]
pIC50 [1]: 4.31 | pIC50 [2]: 5.32 | pIC50 ([3]; 48 h drug incubation): 5.77 | pIC50 ([4]; lung, pancreatic and prostate, read-out: IC50 values, lung, pancreatic and prostate cancer cells): > 5.30 | pIC50 (A549 (lung) cancer cells; 48 h drug incubation): 5.35 | pIC50 ([5]; 48 h drug incubation): 4.47
